# Reference: patent US10919896B2, “Preparation and uses of pyrimidinone derivatives” (Cancer Research Technology Limited, priority 2016, dated 2021)
# Tested on: Cdc7 (pS53MCM2 levels in HCT116 cells)
# Assay: Cdc7 Cell Pharmacodynamics Assay Method 1: pS53MCM2 levels in HCT116 cells, 6 hours
# Assay type: cell-based
# Conditions: Homo sapiens, HCT-116, 6 h, read-out: Biomarker Method 1 (pEC50) (converted)
# How it was run: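 HCT116 cells (wild-type p53), 20,000 per well in McCoys 5A with 10% FCS, treated with compound for 6 h at 37 °C. Lysates captured on total-MCM2 antibody and probed with anti-pMCM2 Ser53 plus HRP secondary; chemiluminescent read-out of pS53MCM2 levels.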
row,Structure (SMILES),EC50 [nM]
1,"O=c1[nH]c(-c2ccnc(F)c2)nc(N2CCCC(F)(F)C2)c1Cl [Compound 90, 5-chloro-4-(3,3-difluoro-1-piperidyl)-2-(2-fluoro-4-pyridyl)-1H-pyrimidin-6-one]",33.1
2,C[C@H]1CN(c2nc(-c3ccncc3)[nH]c(=O)c2Cl)CCN1 [Compound 130],107
3,O=c1[nH]c(-c2ccncc2)nc(N2CCN[C@H](C(F)(F)F)C2)c1Cl [Compound 139],324
4,O=c1[nH]c(-c2ccncc2)nc(N2CCN(CC(F)F)CC2)c1Cl [Compound 147],115
5,CC(C)[C@H]1CN(c2nc(-c3ccnc(F)c3)[nH]c(=O)c2Cl)CCN1 [Compound 170],31.6
6,O=c1[nH]c(-c2ccncc2)nc(N2CCN[C@@H](C(F)(F)F)C2)c1Cl [Compound 180],26.9
7,CC(C)(C)[C@H]1CN(c2nc(-c3ccncc3)[nH]c(=O)c2F)CCN1 [Compound 185],85.1
8,O=c1[nH]c(-c2ccncc2)nc(N2CCCOCC2)c1Cl [Compound 186],347
9,CC(C)[C@H]1CN(c2nc(-c3ccncc3)[nH]c(=O)c2F)CCN1 [Compound 308],178
10,O=c1[nH]c(-c2ccnc(F)c2)nc(N2CCN[C@@H](C(F)(F)F)C2)c1Cl [Compound 314],12.3
11,O=c1[nH]c(-c2ccnc(F)c2)nc(N2CCOCC2)c1Cl [Compound 316],39.8

# The next lines start with the values.
row,EC50 [nM],Structure (SMILES)
1,97.7,N[C@H]1CCCN(c2nc(-c3ccnc(F)c3)[nH]c(=O)c2Cl)C1 [Compound 317]
2,74.1,N[C@@H]1CCCN(c2nc(-c3ccnc(F)c3)[nH]c(=O)c2Cl)C1 [Compound 319]
3,22.4,C[C@@H]1CNCCN1c1nc(-c2ccnc(F)c2)[nH]c(=O)c1Cl [Compound 323]
4,57.5,O=c1[nH]c(-c2ccnc(F)c2)nc(N2CCNCC2)c1Cl [Compound 360]
5,302,NC[C@H]1CCCN(c2nc(-c3ccnc(F)c3)[nH]c(=O)c2Cl)C1 [Compound 362]
6,794,NC[C@@H]1CCCN(c2nc(-c3ccnc(F)c3)[nH]c(=O)c2Cl)C1 [Compound 363]
7,20.4,C[C@@H]1CNCCN1c1nc(-c2ccncc2)[nH]c(=O)c1Cl [Compound 364]
